Test system: 885724-159-R-J1-PDC complex spheroid viability
Assay: Anticancer human tumor 885724-159-R-J1-PDC patient-derived pancreatic adenocarcinoma cell line growth inhibition [POLQ]
Settings: for IC50: curve of first compound; for viability, T/C: stronger effect = lower value
Method: Multicellular complex tumor spheroid response to Polymerase (POL) inhibitors (novobiocin, ART-558, RP6685) in combination with a variety of drugs and investigational agents in selected tumor cell lines
The POL inhibitors (novobiocin, ART-558, and RP6685) were evaluated both individually and in combination with standard of care and investigational anticancer small molecules within a complex spheroid model of solid tumors. . Complex spheroids include a stromal component modeled by human endothelial cells (HUVEC) and fibroblasts modeled by human mesenchymal stem cells (MSCs). The concentration ranges selected for each drug and investigational agent were based upon clinically achievable concentrations if the clinical Cmax of the agent was known.
Compounds. The drugs and investigational agents: novobiocin (NSC847541), ART-558 (NSC835418), RP-6685 (NSC848927), peposertib (NSC802822), ceralasertib (NSC780249), elimusertib (NSC800525), camonsertib (NSC841442), AZD-1390 (NSC803789), olaparib (NSC753686), talazoparib (NSC767125), rucaparib (NSC756644), sotorasib (NSC818433), MRTX-1133 (NSC836407), SN-38 (NSC673596), topotecan (NSC609699), epotoside (NSC141540), doxorubicin (NSC123127), gemcitabine (NSC613327), 5-fluorouracil (NSC19893), paclitaxel (NSC125973), vemurafenib (NSC761431), MSA-2 (NSC828583), SN-011 (NSC837082), adavosertib (NSC754352), prexasertib (NSC758257), carboplatin (NSC241240) and oxaliplatin (NSC266046), were obtained from the National Cancer Institute (NCI) Developmental Therapeutics Program Chemical Repository (21). The FDA-approved anticancer drug set is available from the Developmental Therapeutics Program at https://dtp.cancer.gov/organization/dscb/obtaining/. […] The stock solutions were prepared in dimethyl sulfoxide (DMSO, Sigma-Aldrich, St. Louis, MO, cat. D2650), except for the platinum compounds which were prepared in saline (Quality Biological, Gaithersburg, MD, cat. 114-055-101), at 800-fold the tested concentration and stored at -70 degrees C prior to their use. All drugs and investigational agents were tested over a range starting from a high concentration at or near the clinical Cmax and decreasing in half-log increments. If the clinical Cmax for an agent had not been determined, the highest concentration tested was 10 microM, except for SN-38, which was tested at a high concentration of 1 microM.
Cell Culture. All cells were maintained in an incubator at 37 degrees C and 5% CO2 with 95% humidity. The PDC lines were cultured according to standard operating procedures established by the NCI PDMR (https://pdmr.cancer.gov). Table 3 of the manuscript, lists the cell lines along with the number of the three cell types plated to form the mct-spheroids and media for tumor cell growth. After thawing, all PDC lines, except 997537-175-T-J1-PDC and 415267-285-R-J2-PDC, were cultured in Matrigel-coated flasks prepared with a working solution of 1X Ham's F-12 nutrient mix, without supplementation (Thermo Fisher Scientific, cat. 11765054), 100 U/mL penicillin-streptomycin (Thermo Fisher Scientific, cat. 15140122), and 2.5% Matrigel (Corning Inc., Corning, NY, cat. 354248) for the first three passages. The two PDC lines 997537-175-T-J1-PDC and 415267-285-R-J2-PDC were cultured on uncoated flasks. The 857933-349-R-J2-PDC line was cultured in 6C/Colon 1B media containing advanced DMEM/F-12 (Thermo Fisher Scientific, cat. 12634028), 10 mM HEPES (Thermo Fisher Scientific, cat. 15630080), 1X GlutaMAX supplement (Thermo Fisher Scientific, cat. 35050061), 0.1 mg/mL primocin (InvivoGen, San Diego, CA, cat. ant-pm-2), 10% defined fetal bovine serum, heat inactivated (HyClone Laboratories Inc., Logan, UT, cat. SH30070.03HI), 50% L-WRN conditioned media (ATCC, cat. CRL-3276), 1.25 mM N-Acetyl-L-cysteine (Sigma-Aldrich, cat. A9165), 10 mM nicotinamide (Sigma-Aldrich, cat. N0636), 1X B-27 supplement (Thermo Fisher Scientific, cat. 17504044), 1X N-2 supplement (Thermo Fisher Scientific, cat. […]
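Note: spheroids exposed to compounds for 7 days.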

Q: CC(=O)O[C@H]1C(=O)[C@@]2(C)[C@H]([C@H](OC(=O)c3ccccc3)[C@]3(O)C[C@H](OC(=O)[C@H](O)[C@@H](NC(=O)c4ccccc4)c4ccccc4)C(C)=C1C3(C)C)[C@]1(OC(C)=O)CO[C@@H]1C[C@@H]2O + COC1C(OC(N)=O)C(O)C(Oc2ccc3c(O)c(NC(=O)c4ccc(O)c(CC=C(C)C)c4)c(=O)oc3c2C)OC1(C)C was tested. Which IC50 (second compound 0.0316 µM) did it give?
A: > 3000 nM

Q: What about the IC50 (second compound 0.1 µM) of the same compound?
A: > 3000 nM

Q: And the IC50 (second compound 0.316 µM)?
A: > 3000 nM

Q: What about the IC50 (second compound 1 µM) of the same compound?
A: > 3000 nM

Q: What about the IC50 (second compound 3.16 µM) of the same compound?
A: > 3000 nM

Q: And the IC50 (second compound 10 µM)?
A: > 3000 nM

Q: What about the viability, T/C (second compound 0.0316 µM, first compound 0.00949 µM) of the same compound?
A: 57.8%

Q: What about the viability, T/C (second compound 0.0316 µM, first compound 0.03 µM) of the same compound?
A: 60.2%

Q: And the viability, T/C (second compound 0.0316 µM, first compound 0.0949 µM)?
A: 55.6%

Q: What about the viability, T/C (second compound 0.0316 µM, first compound 0.3 µM) of the same compound?
A: 59%

Q: And the viability, T/C (second compound 0.0316 µM, first compound 0.949 µM)?
A: 59.9%

Q: And the viability, T/C (second compound 0.0316 µM, first compound 3 µM)?
A: 61.6%

Q: And the viability, T/C (second compound 0.1 µM, first compound 0.00949 µM)?
A: 66.1%

Q: And the viability, T/C (second compound 0.1 µM, first compound 0.03 µM)?
A: 59.6%

Q: What about the viability, T/C (second compound 0.1 µM, first compound 0.0949 µM) of the same compound?
A: 56.8%

Q: And the viability, T/C (second compound 0.1 µM, first compound 0.3 µM)?
A: 66.1%

Q: And the viability, T/C (second compound 0.1 µM, first compound 0.949 µM)?
A: 64.5%

Q: And the viability, T/C (second compound 0.1 µM, first compound 3 µM)?
A: 56.8%

Q: What about the viability, T/C (second compound 0.316 µM, first compound 0.00949 µM) of the same compound?
A: 64%

Q: What about the viability, T/C (second compound 0.316 µM, first compound 0.03 µM) of the same compound?
A: 54.9%

Q: And the viability, T/C (second compound 0.316 µM, first compound 0.0949 µM)?
A: 55.7%

Q: And the viability, T/C (second compound 0.316 µM, first compound 0.3 µM)?
A: 56.6%

Q: What about the viability, T/C (second compound 0.316 µM, first compound 0.949 µM) of the same compound?
A: 61.1%

Q: What about the viability, T/C (second compound 0.316 µM, first compound 3 µM) of the same compound?
A: 68.4%

Q: What about the viability, T/C (second compound 1 µM, first compound 0.00949 µM) of the same compound?
A: 65.4%

Q: What about the viability, T/C (second compound 1 µM, first compound 0.03 µM) of the same compound?
A: 60%

Q: And the viability, T/C (second compound 1 µM, first compound 0.0949 µM)?
A: 57.9%

Q: What about the viability, T/C (second compound 1 µM, first compound 0.3 µM) of the same compound?
A: 62.3%

Q: And the viability, T/C (second compound 1 µM, first compound 0.949 µM)?
A: 53.1%

Q: What about the viability, T/C (second compound 1 µM, first compound 3 µM) of the same compound?
A: 56%

Q: What about the viability, T/C (second compound 3.16 µM, first compound 0.00949 µM) of the same compound?
A: 64.3%

Q: And the viability, T/C (second compound 3.16 µM, first compound 0.03 µM)?
A: 57.6%

Q: And the viability, T/C (second compound 3.16 µM, first compound 0.0949 µM)?
A: 52.9%

Q: What about the viability, T/C (second compound 3.16 µM, first compound 0.3 µM) of the same compound?
A: 56.3%

Q: What about the viability, T/C (second compound 3.16 µM, first compound 0.949 µM) of the same compound?
A: 60.3%

Q: What about the viability, T/C (second compound 3.16 µM, first compound 3 µM) of the same compound?
A: 66.5%

Q: What about the viability, T/C (second compound 10 µM, first compound 0.00949 µM) of the same compound?
A: 60.6%

Q: What about the viability, T/C (second compound 10 µM, first compound 0.03 µM) of the same compound?
A: 51.5%

Q: And the viability, T/C (second compound 10 µM, first compound 0.0949 µM)?
A: 59.3%

Q: What about the viability, T/C (second compound 10 µM, first compound 0.3 µM) of the same compound?
A: 56.5%

Q: What about the viability, T/C (second compound 10 µM, first compound 0.949 µM) of the same compound?
A: 67.2%

Q: What about the viability, T/C (second compound 10 µM, first compound 3 µM) of the same compound?
A: 67.4%

Q: COc1cccc2c1C(=O)c1c(O)c3c(c(O)c1C2=O)CC(O)(C(=O)CO)CC3OC1CC(N)C(O)C(C)O1 (centres undefined) + COC1C(OC(N)=O)C(O)C(Oc2ccc3c(O)c(NC(=O)c4ccc(O)c(CC=C(C)C)c4)c(=O)oc3c2C)OC1(C)C was tested. Which IC50 (second compound 0.0316 µM) did it give?
A: 208 nM

Q: And the IC50 (second compound 0.1 µM)?
A: 204 nM

Q: And the IC50 (second compound 0.316 µM)?
A: 201 nM

Q: And the IC50 (second compound 1 µM)?
A: 192 nM

Q: And the IC50 (second compound 3.16 µM)?
A: 197 nM

Q: And the IC50 (second compound 10 µM)?
A: 196 nM

Q: And the viability, T/C (second compound 0.0316 µM, first compound 0.0316 µM)?
A: 71.6%

Q: And the viability, T/C (second compound 0.0316 µM, first compound 0.1 µM)?
A: 91.5%

Q: And the viability, T/C (second compound 0.0316 µM, first compound 0.316 µM)?
A: 31.9%

Q: And the viability, T/C (second compound 0.0316 µM, first compound 1 µM)?
A: 11.6%

Q: And the viability, T/C (second compound 0.0316 µM, first compound 3.16 µM)?
A: 6%

Q: And the viability, T/C (second compound 0.0316 µM, first compound 10 µM)?
A: 7.47%

Q: What about the viability, T/C (second compound 0.1 µM, first compound 0.0316 µM) of the same compound?
A: 71%

Q: And the viability, T/C (second compound 0.1 µM, first compound 0.1 µM)?
A: 89.4%

Q: What about the viability, T/C (second compound 0.1 µM, first compound 0.316 µM) of the same compound?
A: 31.5%

Q: What about the viability, T/C (second compound 0.1 µM, first compound 1 µM) of the same compound?
A: 10.3%

Q: What about the viability, T/C (second compound 0.1 µM, first compound 3.16 µM) of the same compound?
A: 5.36%

Q: What about the viability, T/C (second compound 0.1 µM, first compound 10 µM) of the same compound?
A: 7.37%

Q: What about the viability, T/C (second compound 0.316 µM, first compound 0.0316 µM) of the same compound?
A: 71%

Q: What about the viability, T/C (second compound 0.316 µM, first compound 0.1 µM) of the same compound?
A: 93.2%

Q: And the viability, T/C (second compound 0.316 µM, first compound 0.316 µM)?
A: 29%

Q: And the viability, T/C (second compound 0.316 µM, first compound 1 µM)?
A: 9.53%

Q: And the viability, T/C (second compound 0.316 µM, first compound 3.16 µM)?
A: 5.31%

Q: And the viability, T/C (second compound 0.316 µM, first compound 10 µM)?
A: 7.84%

Q: And the viability, T/C (second compound 1 µM, first compound 0.0316 µM)?
A: 65%

Q: And the viability, T/C (second compound 1 µM, first compound 0.1 µM)?
A: 90.5%

Q: And the viability, T/C (second compound 1 µM, first compound 0.316 µM)?
A: 28.9%

Q: What about the viability, T/C (second compound 1 µM, first compound 1 µM) of the same compound?
A: 10.3%

Q: What about the viability, T/C (second compound 1 µM, first compound 3.16 µM) of the same compound?
A: 5.98%

Q: What about the viability, T/C (second compound 1 µM, first compound 10 µM) of the same compound?
A: 7.87%

Q: And the viability, T/C (second compound 3.16 µM, first compound 0.0316 µM)?
A: 69.5%

Q: And the viability, T/C (second compound 3.16 µM, first compound 0.1 µM)?
A: 92%

Q: And the viability, T/C (second compound 3.16 µM, first compound 0.316 µM)?
A: 28.7%

Q: And the viability, T/C (second compound 3.16 µM, first compound 1 µM)?
A: 7.45%

Q: And the viability, T/C (second compound 3.16 µM, first compound 3.16 µM)?
A: 6%

Q: What about the viability, T/C (second compound 3.16 µM, first compound 10 µM) of the same compound?
A: 7.69%

Q: What about the viability, T/C (second compound 10 µM, first compound 0.0316 µM) of the same compound?
A: 64.2%

Q: And the viability, T/C (second compound 10 µM, first compound 0.1 µM)?
A: 85.7%

Q: What about the viability, T/C (second compound 10 µM, first compound 0.316 µM) of the same compound?
A: 32.2%

Q: What about the viability, T/C (second compound 10 µM, first compound 1 µM) of the same compound?
A: 7.9%

Q: And the viability, T/C (second compound 10 µM, first compound 3.16 µM)?
A: 6.39%

Q: And the viability, T/C (second compound 10 µM, first compound 10 µM)?
A: 7.8%

Source: PubChem BioAssay AID1963832 (Molecular Pharmacology Branch, DTP, NCI, 2024)
